In this assay the target is T1, Human full length PKD1 (Homo sapiens, UniProt Q15139).
T1 construct: Human full length PKD1 at ˜100 μg/mL purchased from Upstate Ltd; purchased Upstate Ltd 14-508
T1 sequence (Q15139 1-912): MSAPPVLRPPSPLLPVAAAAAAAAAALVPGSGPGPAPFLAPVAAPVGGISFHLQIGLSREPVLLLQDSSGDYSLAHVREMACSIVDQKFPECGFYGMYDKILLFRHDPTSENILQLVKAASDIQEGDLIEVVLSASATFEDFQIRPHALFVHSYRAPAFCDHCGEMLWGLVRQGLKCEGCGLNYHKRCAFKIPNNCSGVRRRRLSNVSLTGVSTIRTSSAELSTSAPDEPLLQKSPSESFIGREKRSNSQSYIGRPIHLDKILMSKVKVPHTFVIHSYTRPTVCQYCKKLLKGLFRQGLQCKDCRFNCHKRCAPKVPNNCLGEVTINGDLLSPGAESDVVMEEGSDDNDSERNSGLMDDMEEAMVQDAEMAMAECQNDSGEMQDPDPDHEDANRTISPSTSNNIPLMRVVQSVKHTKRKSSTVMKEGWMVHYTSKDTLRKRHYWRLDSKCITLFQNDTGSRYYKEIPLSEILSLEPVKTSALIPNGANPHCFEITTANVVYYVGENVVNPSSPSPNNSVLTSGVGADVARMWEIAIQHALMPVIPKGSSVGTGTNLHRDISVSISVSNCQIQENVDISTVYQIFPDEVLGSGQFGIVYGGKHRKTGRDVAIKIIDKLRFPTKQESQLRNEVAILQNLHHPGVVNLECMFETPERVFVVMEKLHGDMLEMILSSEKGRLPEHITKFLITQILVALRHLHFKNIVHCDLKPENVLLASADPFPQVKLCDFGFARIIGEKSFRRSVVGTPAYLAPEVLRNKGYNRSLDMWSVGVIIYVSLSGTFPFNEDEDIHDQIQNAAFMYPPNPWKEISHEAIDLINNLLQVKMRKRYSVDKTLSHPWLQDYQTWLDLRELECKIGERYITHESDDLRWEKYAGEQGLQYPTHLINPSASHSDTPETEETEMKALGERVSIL
Kind of assay: PKD1 (Human Full Length) Enzyme Activity Assay (IMAP fluorescence polarisation). Conditions: 10 μM ATP, 10 point dose-response. Format: biochemical. As for the experimental part: PKD1 (Human Full Length) Enzyme Activity Assay
Kinase Assay Reaction Buffer: This consisted of 0.22 μM filtered 25 mM HEPES and 2 mM MgCl2 pH 7.5.
Kinase Enzyme Human full length PKD1 at ˜100 μg/mL purchased from Upstate Ltd (Product code 14-508) was obtained from aliquots stored at −70° C. It was prepared with a final concentration of 0.3 μg/mL by diluting 1:300 in Reaction Buffer (30 μL per 9 mL-5 mL per plate with an additional 4 mL dead volume) and vortexing prior to use.
Substrate: Fluorescein labelled glycogen synthase-derived peptide (FI)-KKLNRTLSVA (also known as MAPKAP K2 substrate) was obtained from Molecular Devices (Product code R7127). […]
The fluorescence polarisation of the substrate in each well was recorded using an analyst microplate reader (Molecular Devices) with a single read at Ex485 Em535 (Analyst settings: Z Height 5 mm, G Factor 0.95, Reads/well 1, Integration 100000 μs, Gain Sensitivity 2).
Percentage inhibition was calculated based on activity of the test sample minus the average values in the blank wells relative to the average values measured in control wells minus the average values in the blank wells.
IC50 values were calculated from 10 point dose sigmoid ‘dose-response’ curves using XIfit software (IDBS inc, USA). […]

Usually IC50 stands for the midpoint of a concentration-inhibition curve.

Regarding `CC[C@@H](N)CN(C)c1ccnc(-c2cc(Cl)ccc2O)n1` [XX-276, 2-{4-[((R)-2-Amino-butyl)-methyl-amino]-pyrimidin-2-yl}-4-chloro-phenol], the IC50 amounted to 0.9 nM.
